SMILES strings stand for the structures.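 Results reflect a 48-hour exposure of cells in 96-well plates to compound at five concentrations. At the GI50, growth is halved. TGI: concentration producing complete growth inhibition.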 Where only a bound is given, the exact number is not on record here.

Common to all, as to assay: growth of human tumour cells (NCI), 48 h
The test system of test [1] is RXF 393 renal.
In test [2] the test system is EKVX NSCLC.
The subject of test [3] is HCT-116 colon.
Test [4] has as its system TK-10 renal.
The subject of test [5] is 786-0 renal.
The test system of test [6] is HOP-62 NSCLC.
For test [7], the system named is A549 NSCLC.
In test [8] the test system is OVCAR-4 ovarian.

In the case of `C#Cc1cccc(Oc2ccc(NC(=O)CCl)cc2)c1`, the GI50 is over 82.5 µM in test [1]; over 82.5 µM in test [2]; 30.9 µM in test [3]; over 82.5 µM in test [4]; over 82.5 µM in test [5]; over 82.5 µM in test [6]. Further, the GI50 was over 82.5 µM in test [7] and 33.3 µM in test [8]. Also, the TGI in test [1], in test [2], in test [3], in test [4], in test [5] and in test [6] was over 82.5 µM each time. For the same compound, the TGI in test [7] and in test [8] was over 82.5 µM throughout.
As for `N#C/C(N)=C(\C#N)N=Cc1csc2ccccc12`, the GI50 in test [2] is 27 µM; in test [3], 26.8 µM; in test [4] it was 17.6 µM; in test [5] it was 34.2 µM; in test [6] it was 15 µM; in test [7], 45.4 µM. In addition, the GI50 in test [8] is 43.5 µM. Further, the TGI in test [2] was over 100 µM; in test [3] it was 83.6 µM; in test [4], 45 µM; in test [5] it was over 100 µM; in test [6], 34.6 µM; in test [7], over 100 µM. The same compound had a TGI in test [8] of over 100 µM.
As for `Nc1ccc2ccc(NS(=O)(=O)N3CCCCC3)cc2c1`, the GI50 in test [2] is 2.05 µM; in test [3], 0.514 µM; in test [4], 3.15 µM; in test [5], 5.32 µM; in test [7], 1 µM; in test [8], 1.82 µM. The TGI in test [2] was over 100 µM; in test [3] it was over 38.7 µM; in test [4] it was over 100 µM; in test [5], over 100 µM; in test [6], over 100 µM; in test [7], over 46 µM. The compound further returned a TGI in test [8] of over 100 µM.
Regarding `C=CCC(N[C@H](CO)c1ccccc1)c1cn(S(=O)(=O)c2ccc(C)cc2)c2ccccc12` (stereo partly specified), the GI50 in test [2] is 25.2 µM; in test [3], 17 µM; in test [4], 3.62 µM; in test [5], over 100 µM; in test [6], 16.8 µM; in test [7], 12.7 µM. The GI50 in test [8] is 73.7 µM. The TGI was 74.8 µM in test [2]; 31.6 µM in test [3]; 18 µM in test [4]; over 100 µM in test [5]; 33.5 µM in test [6]; 32.4 µM in test [7]. The compound further came in with a TGI in test [8] of over 100 µM.
For the compound `COc1cc(C2=NN(c3ccc(S(N)(=O)=O)cc3)C(c3ccc(Cl)cc3)C2)cc(OC)c1OC` (stereo unspecified), the GI50 in test [1] was 3.05 µM; in test [3], 3.41 µM; in test [4] it was 3.27 µM; in test [5] it was 6.43 µM; in test [6] it was 5.8 µM; in test [7] it was 4 µM. The GI50 in test [8] was 3.16 µM. Further, the TGI in test [1], in test [3], in test [4], in test [5], in test [6] and in test [7] was over 100 µM in each case. The compound also gave a TGI in test [8] of 9.46 µM.
As to `CC(O)C(O)C(O)C(/C=N\Nc1ccccc1)=N/Nc1ccccc1` (stereo unspecified), the TGI in test [2] came out at 27.6 µM; in test [3] it was 30.5 µM; in test [4] it was 35.4 µM; in test [5] it was 29.8 µM; in test [6] it was 30.3 µM; in test [7], 28.7 µM.
Regarding `COc1cc(NCC2COc3c(ccc(OC)c3OC)C2=O)c([N+](=O)[O-])cc1OC` (stereo unspecified), the TGI in test [2], in test [3], in test [4], in test [5], in test [6] and in test [7] was over 100 µM throughout. In test [8], this compound showed a TGI of over 100 µM.
Turning to `Cc1nc2cc(Nc3nc(Nc4ccc(F)cc4)nc(N4CCN(C)CC4)n3)ccc2n1Cc1ccccc1`, the GI50 in test [3] is 1.33 µM; in test [5], 1.54 µM; in test [6], 1.85 µM; in test [7], 1.51 µM; in test [8], 2.2 µM. Further, the TGI in test [3] stood at 3.06 µM; in test [5], 3.32 µM; in test [6], 3.65 µM; in test [7], 3.15 µM; in test [8], 5.87 µM.
With `CO[C@@]12C[C@H]3[C@@H]([C@@H](O)[C@@H](OC(=O)/C=C/c4ccccc4)[C@@]4(O)C(C)(C)CCC[C@]34C)[C@@H](C)C1=CC(=O)O2`, the GI50 in test [1] was 1.33 µM; in test [2], 5.36 µM; in test [3] it was 8.8 µM; in test [4], 6.15 µM; in test [5] it was 24.8 µM; in test [7], 3.64 µM. For the same compound, the GI50 in test [8] is 5.03 µM. The TGI in test [1] was 7.93 µM; in test [2], 57.5 µM; in test [3], over 100 µM; in test [4], over 100 µM; in test [5], over 100 µM; in test [7], 18.4 µM. This compound displayed a TGI in test [8] of 30.4 µM.
Turning to `CS(=O)(=O)CCn1c(=O)c(Oc2ccc(F)cc2F)cc2cnc(NC3CCOCC3)nc21`, the GI50 in test [1], in test [3], in test [4], in test [5], in test [6] and in test [7] was over 25 µM throughout. In test [8], the GI50 is over 25 µM. Further, the TGI in test [1], in test [3], in test [4], in test [5], in test [6] and in test [7] was over 25 µM throughout. The TGI in test [8] is over 25 µM.
`C[C@@H](Oc1ccc2[nH]nc(/C=C/c3cnn(CCO)c3)c2c1)c1c(Cl)cncc1Cl`: the GI50 in test [1] is 0.0288 µM; in test [3] it was 0.082 µM; in test [4], 0.251 µM; in test [5], 0.253 µM; in test [6], 0.108 µM; in test [7], 0.0938 µM. For the same compound, the GI50 in test [8] was 1.89 µM. The TGI in test [1] is 0.267 µM; in test [3], over 100 µM; in test [4], 1.68 µM; in test [5] it was 2.38 µM; in test [6] it was 3.06 µM; in test [7], 5.79 µM. The compound also returned a TGI in test [8] of 8.78 µM.
